Source: patent US20150274639A1, “METHODS OF USE FOR COMPOSITIONS COMPRISING A BIOCIDAL POLYAMINE” (Curza Global, LLC, priority 2013, published 2015)
In brackets after ≈: the same amount, converted by molar mass. Several values for one entry are separate records, joined by “and”; a condition that tells them apart may be missing. Equal values may be shown once.

Legend:
[1] = system: A. baumannii biofilm; assay: EBEC, high number biofilms on PEEK membranes (10^9 to 10^2 CFU/PEEK membrane in 24 hours); type: cell-based, Acinetobacter baumannii; conditions: Table 3B titled MICs, group head missing, values match EBEC; for MIC: Acinetobacter baumannii
[2] = system: MRSA biofilm; assay: as above; type: cell-based, methicillin-resistant Staphylococcus aureus; conditions: for EBEC, MRSA: Table 4
Procedure: (§1) In addition to determining the MIC and the MBEC of polyamine compounds against planktonic bacteria and low number biofilms, our group wanted to determine the efficacy of polyamine compounds against high number biofilms. To do so, biofilms were grown on the surface of polyetheretherketone (PEEK) membranes using a membrane biofilm reactor. This reactor is similar to the CDC biofilm reactor, but rather than growing biofilms on coupon surfaces, the reactor was modified to hold PEEK membranes. In short, to grow biofilms within this system, 500 mL of brain heart infusion (BHI) broth were inoculated with 1 mL of a 0.5 McFarland. The reactor was placed on a hot plate set at 34° C. and the bacteria were grown under batch conditions for 24 hours. Following this protocol, biofilms typically grow to 10^9 CFU/PEEK membrane. […] A solution of 10% BHI was then flowed through the reactor at a rate of 6.94 mL/min for an additional 24 hours. PEEK membranes were then removed and placed into 2 mL of CAMHB that contained a desired concentration of polyamine compound or antibiotic. The EBEC was defined as the concentration of antimicrobial required to reduce a biofilm from approximately 10^9 CFU/PEEK membrane to approximately 10^2 CFU/PEEK membrane in a 24-hour period.
(§2) In addition to determining the MIC and the MBEC of compounds against planktonic bacteria and low number biofilms, the efficacy of the compounds of the invention against high number biofilms is determined. To do so, biofilms are grown on the surface of PEEK membranes using a membrane biofilm reactor (Williams, D. L., Haymond, B. S. & Bloebaum, R. D. Use of delrin plastic in a modified CDC biofilm reactor. Res J Microbiol 6, 425-429 (2011); Williams, D. L., Woodbury, K. L., Haymond, B. S., Parker, A. E. & Bloebaum, R. D. A modified CDC biofilm reactor to produce mature biofilms on the surface of PEEK membranes for an in vivo animal model application. Curr Microbiol 62, 1657-1663 (2011); Williams, D. L. et al., In Vivo Efficacy of a Silicone—Cationic Steroid Antimicrobial Coating to Prevent Implant-Related Infection. Biomaterials 33, 8641-8656 (2012); Williams, D. L. et al., Experimental model of biofilm implant-related osteomyelitis to test combination biomaterials using biofilms as initial inocula. J Biomed Mat Res A 100, 1888-1900 (2012)). This reactor is similar to the CDC biofilm reactor, but rather than growing biofilms on coupon surfaces, the reactor was modified to hold PEEK membranes. In short, to grow biofilms within this system, 500 mL of brain heart infusion (BHI) broth is inoculated with 1 mL of a 0.5 McFarland. The reactor is placed on a hot plate set at 34° C. and the bacteria grown under batch conditions for 24 hours. A solution of 10% BHI will then be flowed through the reactor at a rate of 6.94 mL/min for an additional 24 hours. Following this protocol, biofilms typically grow to 10^9 CFU/PEEK membrane. PEEK membranes is removed and placed into 2 mL of CAMHB that contain a desired concentration of the test compound. The EBEC is defined as the concentration of antimicrobial required to reduce a biofilm from approximately 10^9 CFU/PEEK membrane to approximately 10^2 CFU/PEEK membrane in a 24-hour period.
EBEC data were collected to determine the efficacy of CZ-52, CZ-58 and traditional antibiotics against high number biofilms containing approximately 10^9 CFU grown on the surface of a polyetheretherketone (PEEK) membrane.

[3] = system: A. baumannii biofilm; assay: MBEC, MBEC Inoculation Tray by Innovotech (to 10^2 CFU/peg in 24 hours); type: cell-based, Acinetobacter baumannii; conditions: Table 3B titled MICs, group head missing, values match MBEC; for MIC: Acinetobacter baumannii
[4] = system: MRSA biofilm; assay: as above; type: cell-based, methicillin-resistant Staphylococcus aureus; conditions: for MIC: Staphylococcus aureus, MRSA, Table 3A titled MICs, group head missing, values match MBEC; for MBEC, MRSA: Table 4
[5] = system: P. aeruginosa; assay: MIC in CAMHB, 96-well plate (10^5 to 10^2 CFU/mL in 24 hours); type: cell-based; conditions: Pseudomonas aeruginosa
Procedure: To determine the MIC of polyamine compounds, the protocol described herein was used.
In brief, a 0.5 McFarland of each bacterial isolate was made. A 0.5 McFarland is a measure of turbidity in a liquid sample that contains approximately 1×10̂^8 CFU/mL. The 0.5 McFarland standard was diluted in cation adjusted Mueller Hinton Broth (CAMHB), and […], of broth were added to a well of a 96-well plate. In addition, 50 μL of CAMHB that contained a desired concentration of antimicrobial were also added to the well for a final volume of 100 and a final concentration of approximately 5×10^4 CFU/well (which equated to approximately 5×10^5 CFU/mL). Each well contained a desired amount of polyamine compound in order to experimentally determine the MIC. Each 96-well plate was incubated at 37° C. for 24 hours. The contents of each well were plated on tryptic soy agar (TSA). TSA plates were incubated for 37° C. for 24 hours after which the number of CFU were counted and used to calculate the CFU/mL that remained after exposure to varying concentrations of compound. This procedure was repeated n=8 times for each concentration of antimicrobial.

[6] = system: A. baumannii biofilm; assay: EBEC, high number biofilms on PEEK membranes (10^9 to 10^2 CFU/PEEK membrane in 24 hours); type: cell-based, Acinetobacter baumannii; conditions: for EBEC, A. baumannii: Table 4; for EBEC relative to MIC against A. baumannii: EBEC greater than the MIC by this factor
Procedure: as §1, §2
EBEC data were collected to determine the efficacy of CZ-52, CZ-58 and traditional antibiotics against high number biofilms containing approximately 10^9 CFU grown on the surface of a polyetheretherketone (PEEK) membrane. […] In contrast, at 250 μg/mL CZ-52 was able to reduce MRSA biofilms by greater than 7 log10 units in a 24-hour period. Although the MIC of CZ-58 was lower against MRSA compared to A. baumannii, CZ-58 had greater activity against biofilms of A. baumannii than against MRSA biofilms in the EBEC assay. […] Although the MIC of CZ-58 was “high” compared to MICs of traditional antibiotics, the efficacy against biofilms was promising.

[7] = Table 3A, first P. aeruginosa column

Compound | MIC [1] | EBEC, MRSA [2] | MIC [3] | MIC [4] | MBEC, MRSA [4] | MIC [5, 7] | MIC ([5]; Table 5, class symbols) | EBEC, A. baumannii [6] | reduction of MRSA biofilms ([2]; at 250 μg/mL, 24-hour period) | EBEC relative to MIC against A. baumannii [6] | activity against A. baumannii biofilms relative to MRSA biofilms ([6]; greater activity against A. baumannii biofilms) | MIC, A. baumannii [1] | MIC, A. baumannii [3]
NCCCNCCCNCc1cccc(CNCCCNCCCN)c1 [CZ-25] | > 5000 µg/mL | > 5,000 μg/mL and 13,715 μM | 450 µg/mL (≈ 1230 µM) | 25 µg/mL (≈ 68.6 µM) | 25 μg/mL and 69 μM | 50 µg/mL | > 100 µM | ~7,500 μg/mL |  |  |  |  | 
NCCCNCCCNCc1cc(CNCCCNCCCN)cc(CNCCCNCCCN)c1 [CZ-52] | > 5000 µg/mL | 250 μg/mL and 500 μM | 300 µg/mL (≈ 591 µM) | 20 µg/mL (≈ 39.4 µM) | 20 μg/mL and 40 μM | 17 µg/mL |  | ~7,000 μg/mL and ~14,000 μM | greater than 7 log10 units |  |  |  | 
NCCCNCCCNCc1cc(CNCCCNCCCN)cc(-c2ccccc2)c1 [CZ-58] |  | 1,500 μg/mL and 3,403 μM |  |  | 30 μg/mL and 68 μM |  | < 50 µM | 400 μg/mL and 908 μM |  | ~13 × | 10 fold |  | 
Polymyxin B sulfate [reference compound] |  |  |  |  |  |  |  | 1,000 μg/mL and 722 μM |  | 1,000 × |  | 1,000 μg/mL | 50 µg/mL
